Data from patent US20250352514A1, “SALT FORMS OF BIS(3-(2-(DIMETHYLAMINO)ETHYL)-1 H-INDOL-4-YL) 3,3'¬OXYDIPROPIONATE” (priority 2024, published 2025).

Assay: Initial polymorphism assessment by slurrying in 12 solvents at room temperature, XRPD
Format: physicochemical
Details: shaken at room temperature 3-4 days
Description: The vials were capped, sealed with Parafilm®, and then covered with foil. The experiments were shaken at room temperature for 4 days. After 4 days all the experiments had remained as slurries apart from the experiment in water. Portions of solid were removed from each one and analyzed by XRPD.
The vials were capped, sealed with Parafilm® and then covered with foil. The experiments were shaken at room temperature for 3 days. After 3 days all the experiments had remained as slurries. Portions were removed from each one and analyzed by XRPD.

For `CN(C)CCc1c[nH]c2cccc(OC(=O)CCOCCC(=O)Oc3cccc4[nH]cc(CCN(C)C)c34)c12`, the “XRPD patterns after slurrying in 12 solvents compared with input material” value was “XRPD patterns consistent with the XRPD pattern of the input material”.
